According to ChEMBL document CHEMBL2406972, “Synthesis and antitumor activities of novel dibenzo[b,d]furan-imidazole hybrid compounds” (Eur J Med Chem, 2013):

What was measured:
SMMC-7721 [1] = assay: Induction of apoptosis in human SMMC7721 cells assessed as necrotic cells at 6 uM after 48 hrs using by V-FITC/PI double-staining assay (reference value: 4.90%); type: functional
SMMC-7721 [2] = assay: Induction of apoptosis in human SMMC7721 cells at 9 uM after 48 hrs using by V-FITC/PI double-staining assay (reference value: 2.73 +/- 0.69%); type: functional
SMMC-7721 [3] = assay: Cytotoxicity against human SMMC7721 cells after 48 hrs by MTT assay; type: functional, cell-based; conditions: SMMC-7721, 48 h
SMMC-7721 [4] = assay: Induction of apoptosis in human SMMC7721 cells assessed as viable cells at 6 uM after 48 hrs using by V-FITC/PI double-staining assay (reference value: 92.9%); type: functional; conditions: SMMC-7721, 48 h, read-out: Activity
SMMC-7721 [5] = assay: Induction of apoptosis in human SMMC7721 cells assessed as early apoptotic cells at 3 uM after 48 hrs using by V-FITC/PI double-staining assay (reference value: 1.76%); type: functional
SMMC-7721 [6] = assay: Induction of apoptosis in human SMMC7721 cells assessed as early apoptotic cells at 9 uM after 48 hrs using by V-FITC/PI double-staining assay (reference value: 1.76%); type: functional
SMMC-7721 [7] = assay: Cell cycle arrest in human SMMC7721 cells assessed as accumulation at G1 phase at 3 uM after 24 hrs using PI staining by flow cytometry (reference value: 60.29%); type: functional
SMMC-7721 [8] = assay: Induction of apoptosis in human SMMC7721 cells assessed as late apoptotic cells at 3 uM after 48 hrs using by V-FITC/PI double-staining assay (reference value: 0.481%); type: functional
SMMC-7721 [9] = assay: Induction of apoptosis in human SMMC7721 cells at 6 uM after 48 hrs using by V-FITC/PI double-staining assay (reference value: 2.73 +/- 0.69%); type: functional
SMMC-7721 [10] = assay: Cell cycle arrest in human SMMC7721 cells assessed as accumulation at G1 phase after 24 hrs using PI staining by flow cytometry; type: functional, cell-based
SMMC-7721 [11] = assay: Cell cycle arrest in human SMMC7721 cells assessed as accumulation at G2/M phase at 3 uM after 24 hrs using PI staining by flow cytometry (reference value: 12.84%); type: functional
SMMC-7721 [12] = assay: Cell cycle arrest in human SMMC7721 cells assessed as accumulation at G1 phase at 6 uM after 24 hrs using PI staining by flow cytometry (reference value: 60.29%); type: functional
SW480 = assay: Cytotoxicity against human SW480 cells after 48 hrs by MTT assay; type: functional, cell-based; conditions: SW480, 48 h
SMMC-7721 [13] = assay: Cell cycle arrest in human SMMC7721 cells assessed as accumulation at G2/M phase at 6 uM after 24 hrs using PI staining by flow cytometry (reference value: 12.84%); type: functional
SMMC-7721 [14] = assay: Induction of apoptosis in human SMMC7721 cells assessed as viable cells at 3 uM after 48 hrs using by V-FITC/PI double-staining assay (reference value: 92.9%); type: functional; conditions: SMMC-7721, 48 h, read-out: Activity
HL-60 = assay: Cytotoxicity against human HL60 cells after 48 hrs by MTT assay; type: functional, cell-based; conditions: HL-60, 48 h
SMMC-7721 [15] = assay: Induction of apoptosis in human SMMC7721 cells assessed as necrotic cells at 9 uM after 48 hrs using by V-FITC/PI double-staining assay (reference value: 4.90%); type: functional
MCF7 = assay: Cytotoxicity against human MCF7 cells after 48 hrs by MTT assay; type: functional, cell-based; conditions: MCF7, 48 h
SMMC-7721 [16] = assay: Induction of apoptosis in human SMMC7721 cells assessed as late apoptotic cells at 6 uM after 48 hrs using by V-FITC/PI double-staining assay (reference value: 0.481%); type: functional
SMMC-7721 [17] = assay: Induction of apoptosis in human SMMC7721 cells assessed as viable cells at 9 uM after 48 hrs using by V-FITC/PI double-staining assay (reference value: 92.9%); type: functional; conditions: SMMC-7721, 48 h, read-out: Activity
SMMC-7721 [18] = assay: Induction of apoptosis in human SMMC7721 cells at 3 uM after 48 hrs using by V-FITC/PI double-staining assay (reference value: 2.73 +/- 0.69%); type: functional
SMMC-7721 [19] = assay: Cell cycle arrest in human SMMC7721 cells assessed as accumulation at S phase at 6 uM after 24 hrs using PI staining by flow cytometry (reference value: 24.41%); type: functional
SMMC-7721 [20] = assay: Induction of apoptosis in human SMMC7721 cells assessed as early apoptotic cells at 6 uM after 48 hrs using by V-FITC/PI double-staining assay (reference value: 1.76%); type: functional
A549 = assay: Cytotoxicity against human A549 cells after 48 hrs by MTT assay; type: functional, cell-based; conditions: A549, 48 h
SMMC-7721 [21] = assay: Induction of apoptosis in human SMMC7721 cells assessed as necrotic cells at 3 uM after 48 hrs using by V-FITC/PI double-staining assay (reference value: 4.90%); type: functional
SMMC-7721 [22] = assay: Cell cycle arrest in human SMMC7721 cells assessed as accumulation at S phase at 3 uM after 24 hrs using PI staining by flow cytometry (reference value: 24.41%); type: functional
SMMC-7721 [23] = assay: Induction of apoptosis in human SMMC7721 cells assessed as late apoptotic cells at 9 uM after 48 hrs using by V-FITC/PI double-staining assay (reference value: 0.481%); type: functional

Compound O=C(C[n+]1cn(C(c2ccccc2)c2ccc3oc4ccccc4c3c2)c2ccccc21)c1ccc2ccccc2c1.[Br-] (configuration not stated) has an Activity (SMMC-7721 [1]) of 4.21%, an Activity (SMMC-7721 [2]) of 50.8% and an IC50 (SMMC-7721 [3]) of 2.86 µM. The viability at 6 µM (SMMC-7721 [4]) was 53.4%, the Activity (SMMC-7721 [5]) was 3.46% and the Activity (SMMC-7721 [6]) was 11.9%. The Activity (SMMC-7721 [7]) was 67.74%, the Activity (SMMC-7721 [8]) was 5.37% and the Activity (SMMC-7721 [9]) was 43.6%. The Activity (SMMC-7721 [10]) was “Dose-dependent effect”, the Activity (SMMC-7721 [11]) was 4.96% and the Activity (SMMC-7721 [12]) was 80.14%. The IC50 (SW480) was 3.59 µM, the Activity (SMMC-7721 [13]) was 0.75% and the viability at 3 µM (SMMC-7721 [14]) was 90.1%. The IC50 (HL-60) was 0.93 µM, the Activity (SMMC-7721 [15]) was 8.76% and the IC50 (MCF7) was 1.04 µM. The Activity (SMMC-7721 [16]) was 13.8%, the viability at 9 µM (SMMC-7721 [17]) was 39.2% and the Activity (SMMC-7721 [18]) was 7.6%. For the same compound, the Activity (SMMC-7721 [19]) was 17.8%, the Activity (SMMC-7721 [20]) was 28.6% and the IC50 (A549) was 3.54 µM. For the same compound, the Activity (SMMC-7721 [21]) was 1.06%, the Activity (SMMC-7721 [22]) was 26.8% and the Activity (SMMC-7721 [23]) was 40.1%.
O=[N+]([O-])c1ccc(C[n+]2cn(C(c3ccccc3)c3ccc4oc5ccccc5c4c3)c3ccccc32)cc1 (configuration not stated) was tested, and the IC50 (SMMC-7721 [3]) was 13.2 µM, the IC50 (SW480) was 16.7 µM and the IC50 (HL-60) was 4.6 µM. The IC50 (MCF7) was 9.26 µM and the IC50 (A549) was 21.7 µM.
For Cc1n(C(C)c2ccc3oc4ccccc4c3c2)cc[n+]1Cc1ccc([N+](=O)[O-])cc1 (configuration not stated), the IC50 (SMMC-7721 [3]) was > 40 µM, the IC50 (SW480) was > 40 µM and the IC50 (HL-60) was 14.6 µM. The IC50 (MCF7) was > 40 µM and the IC50 (A549) was > 40 µM.
With O=C(C[n+]1ccn(C(c2ccccc2)c2ccc3oc4ccccc4c3c2)c1)c1ccc(O)cc1 (configuration not stated) the IC50 (SMMC-7721 [3]) was 6.28 µM, the IC50 (SW480) was 15.2 µM and the IC50 (HL-60) was 2.61 µM. For the same compound, the IC50 (MCF7) was 7.05 µM and the IC50 (A549) was 6.8 µM.
Cc1n(C(C)c2ccc3oc4ccccc4c3c2)cc[n+]1CC(=O)c1ccc2ccccc2c1 (configuration not stated) was tested, and the IC50 (SMMC-7721 [3]) was 2.15 µM, the IC50 (SW480) was 3.09 µM and the IC50 (HL-60) was 0.6 µM. For the same compound, the IC50 (MCF7) was 1.65 µM and the IC50 (A549) was 3.86 µM.
With COc1ccc(C(=O)C[n+]2ccn(C(c3ccccc3)c3ccc4oc5ccccc5c4c3)c2C)cc1 (configuration not stated) the IC50 (SMMC-7721 [3]) was 2.08 µM, the IC50 (SW480) was 3.73 µM and the IC50 (HL-60) was 0.59 µM. It also gave an IC50 (MCF7) of 2.42 µM and an IC50 (A549) of 1.9 µM.
Compound O=C(C[n+]1cn(C(c2ccccc2)c2ccc3oc4ccccc4c3c2)c2ccccc21)c1ccc(Br)cc1 (configuration not stated) has an IC50 (SMMC-7721 [3]) of 3.36 µM, an IC50 (SW480) of 3.83 µM and an IC50 (HL-60) of 2.1 µM. The IC50 (MCF7) was 2.91 µM and the IC50 (A549) was 3.8 µM.
